Assays:
[1] = test system: 3T3-L1 pre-adipocyte cells; assay: Inhibition of lipid accumulation in differentiated adipocytes (Oil Red O); format: cell-based, mouse; conditions: 3T3-L1 adipocytes; for inhibition at 2.5 µg/mL: 2.5 μg/mL
Protocol: One hundred thousand 3T3-L1 […] pre-adipocyte cells in Dulbecco's Modified Eagles Medium (DMEM) containing 10% Fetal Bovine Serum (FBS) were taken into each well of a 24-well plate and incubated for 48 h at 37° C. and 5% CO2. The differentiation of pre-adipocyte cells was initiated in a differentiation medium containing 10 μg/ml insulin, 1.0 μM dexamethasone, and 0.5 mM isobutylmethylxanthine (IBMX) for 48 h. After this the medium was replaced by DMEM containing 10 ug/ml insulin and incubated for 3 days. Then the differentiating cells were treated with […] of 7-hydroxyfrullanolide (1) or different natural analogs (structure numbers 3 to 11) or semi-synthetic analogs (structure numbers 12 to 25) of 7-HF. The cells were maintained in the medium for another 3-5 days. The cells incubated with 0.1% DMSO were considered as the vehicle control. After the incubation period, cells were washed with phosphate buffered saline (PBS) and fixed with 10% buffered formalin for 1 h at room temperature. One small aliquot of cell suspension was separated for cell counting in hemocytometer chamber. Fixed cells were stained with Oil Red O solution to measure the cellular neutral lipid accumulation. Briefly, cells were washed with PBS, fixed with 10% buffered formalin and stained with Oil Red O solution (0.5 g in 100 ml isopropanol) for […]. After removing the staining solution, the dye retained in the cells will be eluted into isopropanol and OD measured at 550 nm. The inhibition of fat accumulation in the treated cells was compared with the mock treated differentiated adipocytes. The treated and control cells were also analyzed and compared for inhibition of lipid accumulation visually under microscope and recorded digitally in suitable image capture system. The anti-adipogenic activity by 7-HF is depicted in Figure I and the percentage inhibition of lipid accumulation shown by 7-HF and its natural and semi-synthetic analogs is summarized in Table-1.

[2] = test system: 3T3-L1 pre-adipocyte cells; assay: Pro-lipolytic activity in differentiated adipocytes (free glycerol release); format: cell-based, mouse; conditions: increase in glycerol release
Protocol: The lipolytic activity was assessed in mature adipocytes as per the procedure of Chemicon International, USA, by measuring free glycerol secreted into the culture medium. One hundred thousand 3T3-L1 […] pre-adipocyte cells in Dulbecco's Modified Eagles Medium (DMEM) containing 10% Fetal Bovine Serum (FBS) were taken into each well of a 24-well plate and incubated for 48 h at 37° C. and 5% CO2. The differentiation of pre-adipocyte cells was initiated in a differentiation medium containing 10 µg/ml insulin, 1.0 µM dexamethasone, and 0.5 mM isobutylmethylxanthine (IBMX). The cells were differentiated for 5 days and then the culture medium was removed. The monolayer was washed twice with wash solution (Hank's balanced salt solution), and then 250 µL of incubation solution (Hank's balanced salt solution plus 2% bovine serum albumin) was added to the wells in triplicate in presence or absence of 7-hydroxyfrullanolide or its analogs or the extracts containing 7-HF, and the cells were further incubated for 16 h. To measure lipolysis, 200 μL of free glycerol assay reagent was added to 25 µL of culture supernatants and controls containing glycerol standard. The samples and the controls were incubated for 15 min, and the absorbance was read at 540 nm. A standard curve constructed from the glycerol was used to calculate the concentration of free glycerol in the culture supernatants. The percentage increase in glycerol concentration in the sample solutions compared to the control containing the known concentrations of glycerol corresponds to the percentage acceleration of lipolysis by test compound.

**Q.** `CC1=C2[C@@H]3OC(=O)C(CN4CCNCC4)[C@]3(O)CC[C@@]2(C)CCC1` (stereo partly drawn) [Compound-22, (3aR,5aR,9bS)-3,3a,4,5,5a,6,7,8-octahydro-3a-hydroxy-5a,9-dimethyl-3-((piperazin-1-yl)methyl)naphtho[1,2-b]furan-2(9bH)-one] was tested. Which inhibition at 1 µg/mL ([1]; Homo sapiens, 1.0 μg/mL) did it give?
**A.** 15%

**Q.** How did the inhibition at 2 µg/mL ([1]; Homo sapiens, 2.0 μg/mL) turn out when `CC1=C2[C@@H]3OC(=O)C(CN4CCOCC4)[C@]3(O)CC[C@@]2(C)CCC1` (stereo partly drawn) [Compound-17, (3aR,5aR,9bS)-3,3a,4,5,5a,6,7,8-octahydro-3a-hydroxy-5a,9-dimethyl-3-(morpholinomethyl)naphtho[1,2-b]furan-2(9bH)-one] was run?
**A.** 36.2%

**Q.** With `C=C1C(=O)O[C@H]2C3=C(C)C(O)CC[C@]3(C)CC[C@@]12O` (stereo partly drawn) [Compound-10, (3aR,5aR,9bS)-3,3a,4,5,5a,6,7,8-octahydro-3a,8-dihydroxy-5a,9-dimethyl-3-methylenenaphtho[1,2-b]furan-2(9bH)-one] as the compound, how does the inhibition at 2 µg/mL ([1]; Homo sapiens, 2.0 μg/mL) read?
**A.** 45%

**Q.** Which results are given for `C=C1C(=O)O[C@@H]2[C@@]1(O)CC[C@@]1(C)CCCC(=C)[C@]21OO` [Compound-3, (3aR,5aR,9aR,9bR)-decahydro-9a-hydroperoxy-3a-hydroxy-5a-methyl-3,9-dimethylenenaphtho[1,2-b]furan-2(9bH)-one]?
**A.** inhibition at 2.5 µg/mL ([1]; Homo sapiens): 40.5%; % acceleration of lipolysis ([2]; 5 μg/mL): 39.6%

**Q.** How did the “% inhibition of lipid accumulation” value ([1]; 2.0 μg/mL) turn out when `C=C1C(=O)OC2C1(O)CCC1(C)CCCC3(C)OC213` (centres unmarked) [Compound-13, 4,5-epoxy-7-hydroxyfrullanolide] was run?
**A.** 79.7%

**Q.** And the “% acceleration of lipolysis” value ([2]; 5 μg/mL)?
**A.** 52.8%

**Q.** With “Piperazine Bis-7-hydroxyfrullanolide [Compound-23]” as the compound, how does the “% inhibition of lipid accumulation” value ([1]; 1.0 μg/mL) read?
**A.** 15.2%

**Q.** Which inhibition at 2 µg/mL ([1]; Homo sapiens, 2.0 μg/mL) does the source give for `CC1=C2[C@@H]3OC(=O)C(CN4CCCCC4)[C@]3(O)CC[C@@]2(C)CCC1` (stereo partly drawn) [Compound-19, (3aR,5aR,9bS)-3,3a,4,5,5a,6,7,8-octahydro-3a-hydroxy-5a,9-dimethyl-3-((piperidin-1-yl)methyl)naphtho[1,2-b]furan-2(9bH)-one] here?
**A.** 23.3%

**Q.** Which inhibition at 2 µg/mL ([1]; Homo sapiens, 2.0 μg/mL) does the source give for `CC1=CCC[C@]2(C)CCC3=C(CBr)C(=O)OC3=C12` [Compound-14, (R)-3-(bromomethyl)-5,5a,6,7-tetrahydro-5a,9-dimethylnaphtho[1,2-b]furan-2(4H)-one] here?
**A.** 14%

**Q.** With `CC1(O)CCC[C@]2(C)CCC3=C(CN4CCCCC4)C(=O)OC3=C12` (stereo partly drawn) [Compound-20, (5aR)-5,5a,6,7,8,9-hexahydro-9-hydroxy-5a,9-dimethyl-3-((piperidin-1-yl)methyl)naphtho[1,2-b]furan-2(4H)-one] as the compound, how does the inhibition at 2 µg/mL ([1]; Homo sapiens, 2.0 μg/mL) read?
**A.** 7%

**Q.** `CC1=CCC[C@]2(C)CCC3=C(C=O)C(=O)OC3=C12` [Compound-12, (R)-2,4,5,5a,6,7-hexahydro-5a,9-dimethyl-2-oxonaphtho[1,2-b]furan-3-carbaldehyde] was tested. Which inhibition at 2 µg/mL ([1]; Homo sapiens, 2.0 μg/mL) did it give?
**A.** 55%

**Q.** What about the “% acceleration of lipolysis” value ([2]; 5 μg/mL) of the same compound?
**A.** 45.2%

**Q.** How did the inhibition at 2.5 µg/mL ([1]; Homo sapiens) turn out when `CC1=C2[C@@H]3OC(=O)C(CN4CCOCC4)[C@]3(O)CC[C@@]2(C)CCC1O` (stereo partly drawn) [Compound-18, (3aR,5aR,9bS)-3,3a,4,5,5a,6,7,8-octahydro-3a,8-dihydroxy-5a,9-dimethyl-3-(morpholinomethyl)naphtho[1,2-b]furan-2(9bH)-one] was run?
**A.** 133%

**Q.** With `C=C1C(=O)OC2C3=C(C)CCCC3(C)CCC12` (centres unmarked) [Compound-1, 3,3a,4,5,5a,6,7,8-octahydro-5a,9-dimethyl-3-methylenenaphtho[1,2-b]furan-2(9bH)-one] as the compound, how does the inhibition at 2.5 µg/mL ([1]; Homo sapiens) read?
**A.** 19.4%

**Q.** And the “% acceleration of lipolysis” value ([2]; 10 μg/mL)?
**A.** 44.6%

**Q.** How did the inhibition at 2 µg/mL ([1]; Homo sapiens, 2.0 μg/mL) turn out when `C=C1C(=O)O[C@H]2C3=C(C)C(=O)CC[C@]3(C)CC[C@@]12O` [Compound-11, (3aR,5aS,9bS)-3a,4,5,5a,6,7-hexahydro-3a-hydroxy-5a,9-dimethyl-3-methylenenaphtho[1,2-b]furan-2,8(3H,9bH)-dione] was run?
**A.** 8%

From US20130136809A1, “7-HYRDROXYFRULLANOLIDE ITS ANALOGS FOR PREVENTION CONTROL AND TREATMENT OF METABOLIC DISORDERS” (LAILA NUTRACEUTICALS, priority 2009, published 2013)
